Assay: xn = mol fraction of the nth substance listed
Conditions: 101 kPa

CCCOCCO + CCCC[n+]1ccn(C)c1.F[P-](F)(F)(F)(F)F
speed of sound [m/s]
Conditions | x1 = 0.1468 | x1 = 0.1945 | x1 = 0.3063 | x1 = 0.3953 | x1 = 0.5119 | x1 = 0.6168 | x1 = 0.702 | x1 = 0.8043 | x1 = 0.8873 | x1 = 1
298.15 K | 1431.8 | 1427.1 | 1414 | – | 1384.2 | 1366.5 | – | 1331.5 | 1316.4 | –
303.15 K | 1419 | 1414 | – | 1387.9 | 1369.3 | 1351 | 1334.9 | – | 1299.9 | 1283.7
308.15 K | 1406.6 | – | 1387.1 | 1374.1 | 1354.7 | 1335.6 | 1319.1 | – | 1283.5 | 1266.4
313.15 K | 1394.5 | 1389.3 | 1374.4 | 1360.8 | 1340.3 | 1320.3 | – | 1283.2 | 1267.2 | 1249.2
318.15 K | 1382.8 | 1377.1 | 1361.6 | 1347.3 | – | – | 1288.1 | 1267.3 | 1250.9 | 1231.9
323.15 K | – | 1365.3 | 1349.2 | 1334.2 | 1312 | – | 1272.7 | 1251.5 | 1234.9 | 1215

CCCC[n+]1ccn(C)c1.F[P-](F)(F)(F)(F)F + CCCOCCO
x2 = 0
Conditions | speed of sound [m/s]
298.15 K | 1443.8
308.15 K | 1419.8
323.15 K | 1385.6

Source: a compilation of properties of binary mixtures (doi:10.1016/j.molliq.2016.01.085)
